Assay results reported in ChEMBL document CHEMBL3885881, “DrugMatrix”.

Species on record: Rattus norvegicus
Assay: DrugMatrix - Regimen: Daily Repeat
Format: toxicity, organism-based, Sprague-Dawley
Parameters: regimen Daily Repeat, gender Male, age 6-8 weeks
Settings: in vivo, po, route oral GAVAGE, vehicle 100 % SALINE; for ABSOLUTE BASOPHIL / ABSOLUTE EOSINOPHIL / ABSOLUTE LYMPHOCYTE / ABSOLUTE MONOCYTE / ABSOLUTE SEGMENTED NEUTROPHIL / BASOPHIL / EOSINOPHIL / ERYTHROCYTE COUNT / HEMATOCRIT / HEMOGLOBIN / LEUKOCYTE COUNT / LYMPHOCYTE / MEAN CORPUSCULAR HEMOGLOBIN / MEAN CORPUSCULAR HEMOGLOBIN CONCENTRATION / MEAN CORPUSCULAR VOLUME / MONOCYTE / NEUTROPHIL / NUCLEATED RED BLOOD CELLS / PLATELET COUNT: tissue Blood; for ALANINE AMINOTRANSFERASE / ALBUMIN / ALKALINE PHOSPHATASE / ASPARTATE AMINOTRANSFERASE / BLOOD UREA NITROGEN / CARBON DIOXIDE / CHLORIDE / CHOLESTEROL / CREATINE PHOSPHOKINASE / CREATININE / GLUCOSE / LACTATE DEHYDROGENASE / LIPASE / PHOSPHORUS / POTASSIUM / SODIUM / TOTAL BILIRUBIN / TOTAL PROTEIN / URIC ACID: tissue Plasma
[1] = 0 mg/kg, 72 h, dose level Control, time 3 day
[2] = 0 mg/kg, 120 h, dose level Control, time 5 day
[3] = […], 72 h, dose 2.3 mg/Kg, dose level Low, time 3 day
[4] = […], 120 h, dose 2.3 mg/Kg, dose level Low, time 5 day

## CC(CN1c2ccccc2Sc2ccccc21)N(C)C (configuration not stated) [PROMETHAZINE]
[1]
  ABSOLUTE BASOPHIL: 0 CELLS/uL
  ABSOLUTE EOSINOPHIL: 65.67 CELLS/uL
  ABSOLUTE LYMPHOCYTE: 17283.5 CELLS/uL
  ABSOLUTE MONOCYTE: 0 CELLS/uL
  ABSOLUTE SEGMENTED NEUTROPHIL: 1284.17 CELLS/uL
  BASOPHIL: 0%
  EOSINOPHIL: 0.33%
  ERYTHROCYTE COUNT: 5.46 x10E6/uL
  HEMATOCRIT: 34.28%
  HEMOGLOBIN: 13.78 G/DL
  LEUKOCYTE COUNT: 18.63 x10E3/uL
  LYMPHOCYTE: 92.67%
  MEAN CORPUSCULAR HEMOGLOBIN: 25.3 pg
  MEAN CORPUSCULAR HEMOGLOBIN CONCENTRATION: 40.22 G/DL
  MEAN CORPUSCULAR VOLUME: 62.87 fL
  MONOCYTE: 0%
  NEUTROPHIL: 7%
  NUCLEATED RED BLOOD CELLS: 0 /100WBC
  PLATELET COUNT: 1244.83 x10E3/uL
  ALANINE AMINOTRANSFERASE: 52.83 u/L
  ALBUMIN: 4 G/DL
  ALKALINE PHOSPHATASE: 327.67 u/L
  ASPARTATE AMINOTRANSFERASE: 78.83 u/L
  BLOOD UREA NITROGEN: 13.83 mg/dL
  CARBON DIOXIDE: 26.67 mmol/L
  CHLORIDE: 99.67 MEQ/L
  CHOLESTEROL: 69 mg/dL
  CREATINE PHOSPHOKINASE: 350.17 u/L
  CREATININE: 0.21 mg/dL
  GLUCOSE: 173.83 mg/dL
  LACTATE DEHYDROGENASE: 168.33 u/L
  LIPASE: 11 u/L
  PHOSPHORUS: 12.7 mg/dL
  POTASSIUM: 6.88 MEQ/L
  SODIUM: 141.68 MEQ/L
  TOTAL BILIRUBIN: 0.22 mg/dL
  TOTAL PROTEIN: 6.02 G/DL
  URIC ACID: 1.9 mg/dL
[2]
  ABSOLUTE BASOPHIL: 0 CELLS/uL
  ABSOLUTE EOSINOPHIL: 14.83 CELLS/uL
  ABSOLUTE LYMPHOCYTE: 12880 CELLS/uL
  ABSOLUTE MONOCYTE: 90.67 CELLS/uL
  ABSOLUTE SEGMENTED NEUTROPHIL: 864.5 CELLS/uL
  BASOPHIL: 0%
  EOSINOPHIL: 0.17%
  ERYTHROCYTE COUNT: 5.83 x10E6/uL
  HEMATOCRIT: 35.87%
  HEMOGLOBIN: 14 G/DL
  LEUKOCYTE COUNT: 13.85 x10E3/uL
  LYMPHOCYTE: 92.5%
  MEAN CORPUSCULAR HEMOGLOBIN: 24.03 pg
  MEAN CORPUSCULAR HEMOGLOBIN CONCENTRATION: 39.03 G/DL
  MEAN CORPUSCULAR VOLUME: 61.53 fL
  MONOCYTE: 0.67%
  NEUTROPHIL: 6.67%
  NUCLEATED RED BLOOD CELLS: 0 /100WBC
  PLATELET COUNT: 1041.83 x10E3/uL
  ALANINE AMINOTRANSFERASE: 56 u/L
  ALBUMIN: 4.47 G/DL
  ALKALINE PHOSPHATASE: 319 u/L
  ASPARTATE AMINOTRANSFERASE: 89.17 u/L
  BLOOD UREA NITROGEN: 15.2 mg/dL
  CARBON DIOXIDE: 24 mmol/L
  CHLORIDE: 104.4 MEQ/L
  CHOLESTEROL: 69.5 mg/dL
  CREATINE PHOSPHOKINASE: 295.83 u/L
  CREATININE: 0.21 mg/dL
  GLUCOSE: 124.33 mg/dL
  LACTATE DEHYDROGENASE: 325.5 u/L
  LIPASE: 14.67 u/L
  PHOSPHORUS: 11.45 mg/dL
  POTASSIUM: 6.74 MEQ/L
  SODIUM: 151.4 MEQ/L
  TOTAL BILIRUBIN: 0.23 mg/dL
  TOTAL PROTEIN: 6.45 G/DL
  URIC ACID: 1.18 mg/dL
[3]
  ABSOLUTE BASOPHIL: 0 CELLS/uL
  ABSOLUTE EOSINOPHIL: 137 CELLS/uL
  ABSOLUTE LYMPHOCYTE: 14557.33 CELLS/uL
  ABSOLUTE MONOCYTE: 165.33 CELLS/uL
  ABSOLUTE SEGMENTED NEUTROPHIL: 1673.67 CELLS/uL
  BASOPHIL: 0%
  EOSINOPHIL: 1%
  ERYTHROCYTE COUNT: 5.52 x10E6/uL
  HEMATOCRIT: 34.93%
  HEMOGLOBIN: 13.67 G/DL
  LEUKOCYTE COUNT: 16.53 x10E3/uL
  LYMPHOCYTE: 88.33%
  MEAN CORPUSCULAR HEMOGLOBIN: 24.8 pg
  MEAN CORPUSCULAR HEMOGLOBIN CONCENTRATION: 39.13 G/DL
  MEAN CORPUSCULAR VOLUME: 63.3 fL
  MONOCYTE: 1%
  NEUTROPHIL: 9.67%
  NUCLEATED RED BLOOD CELLS: 0 /100WBC
  PLATELET COUNT: 1282.33 x10E3/uL
  ALANINE AMINOTRANSFERASE: 48 u/L
  ALBUMIN: 4.07 G/DL
  ALKALINE PHOSPHATASE: 265 u/L
  ASPARTATE AMINOTRANSFERASE: 76 u/L
  BLOOD UREA NITROGEN: 13.67 mg/dL
  CARBON DIOXIDE: 25.33 mmol/L
  CHLORIDE: 102 MEQ/L
  CHOLESTEROL: 62.67 mg/dL
  CREATINE PHOSPHOKINASE: 306.33 u/L
  CREATININE: 0.2 mg/dL
  GLUCOSE: 164.67 mg/dL
  LACTATE DEHYDROGENASE: 197.33 u/L
  LIPASE: 10.33 u/L
  PHOSPHORUS: 11.33 mg/dL
  POTASSIUM: 6.26 MEQ/L
  SODIUM: 142.7 MEQ/L
  TOTAL BILIRUBIN: 0.2 mg/dL
  TOTAL PROTEIN: 5.87 G/DL
  URIC ACID: 1.63 mg/dL
[4]
  ABSOLUTE BASOPHIL: 0 CELLS/uL
  ABSOLUTE EOSINOPHIL: 47.67 CELLS/uL
  ABSOLUTE LYMPHOCYTE: 14175.67 CELLS/uL
  ABSOLUTE MONOCYTE: 210 CELLS/uL
  ABSOLUTE SEGMENTED NEUTROPHIL: 1533.33 CELLS/uL
  BASOPHIL: 0%
  EOSINOPHIL: 0.33%
  ERYTHROCYTE COUNT: 5.54 x10E6/uL
  HEMATOCRIT: 35.6%
  HEMOGLOBIN: 13.8 G/DL
  LEUKOCYTE COUNT: 15.97 x10E3/uL
  LYMPHOCYTE: 89%
  MEAN CORPUSCULAR HEMOGLOBIN: 24.93 pg
  MEAN CORPUSCULAR HEMOGLOBIN CONCENTRATION: 38.77 G/DL
  MEAN CORPUSCULAR VOLUME: 64.27 fL
  MONOCYTE: 1.33%
  NEUTROPHIL: 9.33%
  NUCLEATED RED BLOOD CELLS: 0 /100WBC
  PLATELET COUNT: 1323 x10E3/uL
  ALANINE AMINOTRANSFERASE: 48.67 u/L
  ALBUMIN: 4.2 G/DL
  ALKALINE PHOSPHATASE: 312 u/L
  ASPARTATE AMINOTRANSFERASE: 76.33 u/L
  BLOOD UREA NITROGEN: 12.67 mg/dL
  CARBON DIOXIDE: 22 mmol/L
  CHLORIDE: 103.67 MEQ/L
  CHOLESTEROL: 67.67 mg/dL
  CREATINE PHOSPHOKINASE: 212 u/L
  CREATININE: 0.17 mg/dL
  GLUCOSE: 187 mg/dL
  LACTATE DEHYDROGENASE: 113 u/L
  LIPASE: 9 u/L
  PHOSPHORUS: 11.2 mg/dL
  POTASSIUM: 6.01 MEQ/L
  SODIUM: 144.6 MEQ/L
  TOTAL BILIRUBIN: 0.17 mg/dL
  TOTAL PROTEIN: 6.07 G/DL
  URIC ACID: 2.13 mg/dL
